Reference: PubChem BioAssay AID248 (DTP/NCI, 2004)
“And” between values parts separate entries of the source, which are not always exact repeats. Identical values can stand only once. Toxic doses and inconclusive results are not listed. Rule as the data show it: active = T/C of 150% or more; inactive = T/C below 125%.

Test system: L1210 leukemia ip in BDF1 mice, survival T/C
Experiment: NCI In Vivo Anticancer Drug Screen. Data for tumor model L1210 Leukemia (intraperitoneal) in B6D2F1 (BDF1) mice
Details: endpoint: mean survival time, higher = longer survival
In short: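 Read-out is survival time, reported as the treated-group measurement over the vehicle-control measurement.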

[1] = dose: 100.0 mg/kg/injection, schedule: Q04DX003 (ip), vehicle: Klucel (hydroxypropylcellulose) (HPC)
[2] = dose: 100.0 mg/kg/injection, schedule: Q01DX001 (ip), vehicle: other
[3] = dose: 100.0 mg/kg/injection, schedule: Q01DX009 (ip), vehicle: Klucel (hydroxypropylcellulose) (HPC)
[4] = dose: 200.0 mg/kg/injection, schedule: Q01DX009 (ip), vehicle: Klucel (hydroxypropylcellulose) (HPC)
[5] = dose: 200.0 mg/kg/injection, schedule: Q04DX003 (ip), vehicle: Klucel (hydroxypropylcellulose) (HPC)
[6] = dose: 400.0 mg/kg/injection, schedule: Q01DX009 (ip), vehicle: Klucel (hydroxypropylcellulose) (HPC)
[7] = dose: 400.0 mg/kg/injection, schedule: Q04DX003 (ip), vehicle: Klucel (hydroxypropylcellulose) (HPC)
[8] = dose: 100.0 mg/kg/injection, schedule: Q04DX002 (ip), vehicle: saline
[9] = dose: 200.0 mg/kg/injection, schedule: Q04DX002 (ip), vehicle: saline
[10] = dose: 25.0 mg/kg/injection, schedule: Q01DX009 (ip), vehicle: saline
[11] = dose: 50.0 mg/kg/injection, schedule: Q01DX009 (ip), vehicle: saline
[12] = dose: 100.0 mg/kg/injection, schedule: Q01DX009 (ip), vehicle: saline with Tween-80
[13] = dose: 200.0 mg/kg/injection, schedule: Q01DX009 (ip), vehicle: saline with Tween-80
[14] = dose: 400.0 mg/kg/injection, schedule: Q01DX009 (ip), vehicle: saline with Tween-80

Measured: T/C

Cc1cnc(-n2cc(C)c(-c3ccccc3O)n2)nc1-c1ccccc1O
inactive: dose: 100.0 mg/kg/injection, schedule: Q04DX002 (ip), vehicle: Klucel (hydroxypropylcellulose) (HPC) 96 % of control | dose: 200.0 mg/kg/injection, schedule: Q04DX002 (ip), vehicle: Klucel (hydroxypropylcellulose) (HPC) 88 % of control | dose: 400.0 mg/kg/injection, schedule: Q04DX002 (ip), vehicle: Klucel (hydroxypropylcellulose) (HPC) 100 % of control

Cc1ccc(C[As](C)(=O)O)cc1
inactive: dose: 25.0 mg/kg/injection, schedule: Q04DX003 (ip), vehicle: Klucel (hydroxypropylcellulose) (HPC) 100 % of control | dose: 50.0 mg/kg/injection, schedule: Q04DX003 (ip), vehicle: Klucel (hydroxypropylcellulose) (HPC) 98 % of control | [1] 97 % of control

CCOC(=O)C(=O)Cc1cnccn1
inactive: [2] 101 % of control and 108 % of control | dose: 200.0 mg/kg/injection, schedule: Q01DX001 (ip), vehicle: other 100 % of control and 101 % of control | dose: 400.0 mg/kg/injection, schedule: Q01DX001 (ip), vehicle: other 97 % of control

COc1ccc(CN2CCCN(Cc3ccc(OC)cc3OC)C2c2ccc(N(CCCl)CCCl)cc2F)c(OC)c1
inactive: dose: 50.0 mg/kg/injection, schedule: Q01DX001 (ip), vehicle: carboxymethylcellulose (CMC) 104 % of control | dose: 100.0 mg/kg/injection, schedule: Q01DX001 (ip), vehicle: carboxymethylcellulose (CMC) 98 % of control | dose: 200.0 mg/kg/injection, schedule: Q01DX001 (ip), vehicle: carboxymethylcellulose (CMC) 104 % of control | dose: 400.0 mg/kg/injection, schedule: Q01DX001 (ip), vehicle: carboxymethylcellulose (CMC) 106 % of control

Clc1ccc(/C(=[C](\[Hg]/[C](=C(\c2ccccc2)c2ccc(Cl)cc2)c2ccccc2)c2ccccc2)c2ccccc2)cc1
inactive: [3] 96 % of control | [1] 101 % of control | [4] 102 % of control | [5] 107 % of control | [6] 96 % of control | [7] 102 % of control

O=C(O)C1=NN(c2ccc([N+](=O)[O-])cc2)C(=O)C1
inactive: dose: 100.0 mg/kg/injection, schedule: Q04DX003 (ip), vehicle: other 106 % of control | dose: 200.0 mg/kg/injection, schedule: Q04DX003 (ip), vehicle: other 105 % of control | dose: 400.0 mg/kg/injection, schedule: Q04DX003 (ip), vehicle: other 106 % of control

CC1CCNC(C(C)C)CC1 (stereo unspecified)
inactive: [8] 96 % of control | [9] 115 % of control

Oc1cccc2ccc3ccc4ccccc4c3c12
inactive: dose: 87.5 mg/kg/injection, schedule: Q04DX003 (ip), vehicle: Klucel (hydroxypropylcellulose) (HPC) 93 % of control | dose: 175.0 mg/kg/injection, schedule: Q04DX003 (ip), vehicle: Klucel (hydroxypropylcellulose) (HPC) 93 % of control | dose: 350.0 mg/kg/injection, schedule: Q04DX003 (ip), vehicle: Klucel (hydroxypropylcellulose) (HPC) 95 % of control

CCCCC(CC)COC(=O)CC(O)C(=O)OCC(CC)CCCC (stereo unspecified)
inactive: [3] 103 % of control | [4] 100 % of control | [6] 103 % of control

CC1(C)N=C(N)N=C(N)N1c1ccc2ccccc2c1
inactive: dose: 5.0 mg/kg/injection, schedule: Q01DX001 (ip), vehicle: other 105 % of control | dose: 10.0 mg/kg/injection, schedule: Q01DX001 (ip), vehicle: other 102 % of control | dose: 20.0 mg/kg/injection, schedule: Q01DX001 (ip), vehicle: other 96 % of control | dose: 25.0 mg/kg/injection, schedule: Q01DX015 (ip), vehicle: other 97 % of control | dose: 40.0 mg/kg/injection, schedule: Q01DX001 (ip), vehicle: other 105 % of control | dose: 50.0 mg/kg/injection, schedule: Q01DX015 (ip), vehicle: other 107 % of control | dose: 80.0 mg/kg/injection, schedule: Q01DX001 (ip), vehicle: other 100 % of control | [2] 104 % of control

COC(=O)c1[nH]cnc1/N=N/N(C)C.[Cl][Cu][Cl]
inactive: dose: 9.0 mg/kg/injection, schedule: Q01DX009 (ip), vehicle: saline 106 % of control and 115 % of control | dose: 13.0 mg/kg/injection, schedule: Q01DX009 (ip), vehicle: saline 107 % of control and 108 % of control | dose: 20.0 mg/kg/injection, schedule: Q01DX009 (ip), vehicle: saline 122 % of control

Cc1ccc(C(=O)C[S+](C)C)c(C)c1
inactive: [10] 98 % of control | [11] 95 % of control | dose: 100.0 mg/kg/injection, schedule: Q04DX003 (ip), vehicle: saline with Tween-80 102 % of control

Nc1ccc([As](=O)(O)O)cc1
inactive: [10] 102 % of control | [11] 102 % of control | dose: 100.0 mg/kg/injection, schedule: Q01DX009 (ip), vehicle: saline 94 % of control and 104 % of control | [8] 91 % of control | [9] 102 % of control | dose: 400.0 mg/kg/injection, schedule: Q04DX002 (ip), vehicle: saline 87 % of control

COc1cccc(O)c1/C=C/[N+](=O)[O-]
inactive: dose: 50.0 mg/kg/injection, schedule: Q01DX009 (ip), vehicle: Klucel (hydroxypropylcellulose) (HPC) 104 % of control | [3] 102 % of control

COC(C)c1ccccc1 (stereo unspecified)
inactive: dose: 103.0 mg/kg/injection, schedule: Q01DX Z (ip), vehicle: methylcellulose (MC) 91 % of control | dose: 155.0 mg/kg/injection, schedule: Q01DX Z (ip), vehicle: methylcellulose (MC) 96 % of control | dose: 233.0 mg/kg/injection, schedule: Q01DX Z (ip), vehicle: methylcellulose (MC) 96 % of control | dose: 350.0 mg/kg/injection, schedule: Q01DX Z (ip), vehicle: methylcellulose (MC) 102 % of control

Cc1c(Cl)c(Cl)c(NS(=O)(=O)c2ccccc2)c(NS(=O)(=O)c2ccccc2)c1Cl
inactive: [3] 95 % of control | [4] 103 % of control | [6] 100 % of control

O=Cc1ccc(N2CCCCC2)cc1
inactive: [3] 100 % of control | [1] 101 % of control | [4] 107 % of control | [5] 95 % of control | [7] 89 % of control

Clc1nc(Cl)c(Nc2ccn[nH]2)nc1Cl
inactive: [12] 91 % of control | [13] 86 % of control | [14] 94 % of control

N#CC12CC=CCC1CCC2=N (stereo unspecified)
inactive: dose: 12.5 mg/kg/injection, schedule: Q01DX009 (ip), vehicle: Klucel (hydroxypropylcellulose) (HPC) 96 % of control | dose: 25.0 mg/kg/injection, schedule: Q01DX009 (ip), vehicle: Klucel (hydroxypropylcellulose) (HPC) 89 % of control

NC(=O)Nc1cc(NC(N)=O)cc(N(CCO)CCO)c1
inactive: dose: 100.0 mg/kg/injection, schedule: Q01DX009 (ip), vehicle: water 97 % of control | dose: 100.0 mg/kg/injection, schedule: Q04DX003 (ip), vehicle: water 102 % of control | dose: 200.0 mg/kg/injection, schedule: Q01DX009 (ip), vehicle: water 97 % of control | dose: 200.0 mg/kg/injection, schedule: Q04DX003 (ip), vehicle: water 102 % of control | dose: 400.0 mg/kg/injection, schedule: Q01DX009 (ip), vehicle: water 103 % of control | dose: 400.0 mg/kg/injection, schedule: Q04DX003 (ip), vehicle: water 104 % of control

CCC(=O)C(CC)c1ccccc1OC (stereo unspecified)
inactive: [12] 95 % of control | dose: 100.0 mg/kg/injection, schedule: Q04DX003 (ip), vehicle: saline 94 % of control | [13] 95 % of control | dose: 200.0 mg/kg/injection, schedule: Q04DX003 (ip), vehicle: saline 97 % of control | [14] 108 % of control | dose: 400.0 mg/kg/injection, schedule: Q04DX003 (ip), vehicle: saline 97 % of control
